Test [1] relates to HCT116 cells, MKN45 cells. The test can be described thus: Test C: Measurement of cell proliferation by 14C-thymidine pulse. The format is cell-based. Particulars: 14C-thymidine incorporation, 96 h of treatment; cell line not given. How it is done:
(§1) Stop the reaction with 100 μl of stop solution. Read without delay at […], 0.1 second on Wallac Victor plate reader. • C) Test C: Measurement of cell proliferation by ^14c-thymidine pulse
The cells are seeded into Cytostar 96-well plates in 180 μl for 4 hours at 37° C. and 5% CO2: HCT116 cells at a rate of 2500 cells per well in DMEM medium+10% foetal calf serum+1% L-glutamine and MKN45 cells at a rate of 7500 cells per well in RPMI medium+10% foetal calf serum+1% L-glutamine. After these 4 hours of incubation, the products are added in 10 μl as a 20-fold concentrated solution according to the dilution method mentioned for the ELISA. The products are tested at 10 concentrations in duplicate from 10 000 nM to 0.3 nM with an increment of 3.
After treatment for 72 h, add 10 μl of ^14C-thymidine at 10 μCi/ml to obtain 0.1 μCi per well. The ^14C-thymidine incorporation is measured on a Micro-Beta machine (Perkin-Elmer) after 24 hours of pulse and 96 h of treatment.
All the steps of the assay are automated on BIOMEK 2000 or TECAN stations.
(Dividing cells build labelled thymidine or BrdU into new DNA.)

Test [2] deals with T1, MET (Homo sapiens, UniProt P08581). Description: Test B: Inhibition of the autophosphorylation of MET; ELISA technique (pppY1230,1234,1235) in MKN45 cells. The following applies: 1 h treatment, PhosphoMET ELISA. More on the design: Seed MKN45 cells into 96-well plates (Cell coat BD polylysine) at 20 000 cells/well; endogenous in cells; host or cells: MKN45 cells. The class given is cell-based. How it is done:
Leave to adhere for 24 hours in an incubator.
The cells are treated the day after seeding with the products at 6 concentrations in duplicate for 1 h. At least 3 control wells are treated with the same final amount of DMSO.
Product dilution: Stock at 10 mM in pure DMSO—range from 10 mM to 30 μM with an increment of 3 in pure DMSO—intermediate 1/50 dilutions in culture medium and then removal of 10 μl added directly to the cells (200 μl): final range of 10 000 to 30 nM.
At the end of the incubation, carefully remove the supernatant and rinse with 200 μl of PBS. Next, place 100 μl of lysis buffer directly in the wells on ice and incubate at 4° C. for 30 minutes. Lysis buffer: 10 mM Tris HCl, pH7.4, 100 mM NaCl, 1 mM EDTA, 1 mM EGTA, 1% Triton X-100, 10% glycerol, 0.1% SDS, 0.5% deoxycholate, 20 mM NaF, 2 mM Na3VO4, 1 mM PMSF and cocktail of antiproteases.
The 100 μl of lysates are transferred into a V-bottomed polypropylene plate and the ELISA is performed immediately, or the plate is frozen at −80° C. • b) PhosphoMET ELISA BioSource Kit KH00281
Into each well of the kit plate, add 70 μl of kit dilution buffer+30 μL of cell lysate or 30 μl of lysis buffer for the blanks. Incubate for 2 h with gentle agitation at ambient temperature.
Rinse the wells 4 times with 400 μl of kit washing buffer. Incubate with 100 μl of anti-phospho MET antibody for 1 hour at ambient temperature.
Rinse the wells 4 times with 400 μl of kit washing buffer. Incubate with 100 μl of anti-rabbit HRP antibody for 30 minutes at ambient temperature (except for the wells of chromogen alone).
Rinse the wells 4 times with 400 μl of kit washing buffer. Introduce 100 μL of chromogen and incubate for 30 minutes in the dark at ambient temperature.
as §1
For orientation: In an ELISA, binding on a coated surface is turned into a signal by an enzyme label.
Target sequence in this assay (P08581 25-1390): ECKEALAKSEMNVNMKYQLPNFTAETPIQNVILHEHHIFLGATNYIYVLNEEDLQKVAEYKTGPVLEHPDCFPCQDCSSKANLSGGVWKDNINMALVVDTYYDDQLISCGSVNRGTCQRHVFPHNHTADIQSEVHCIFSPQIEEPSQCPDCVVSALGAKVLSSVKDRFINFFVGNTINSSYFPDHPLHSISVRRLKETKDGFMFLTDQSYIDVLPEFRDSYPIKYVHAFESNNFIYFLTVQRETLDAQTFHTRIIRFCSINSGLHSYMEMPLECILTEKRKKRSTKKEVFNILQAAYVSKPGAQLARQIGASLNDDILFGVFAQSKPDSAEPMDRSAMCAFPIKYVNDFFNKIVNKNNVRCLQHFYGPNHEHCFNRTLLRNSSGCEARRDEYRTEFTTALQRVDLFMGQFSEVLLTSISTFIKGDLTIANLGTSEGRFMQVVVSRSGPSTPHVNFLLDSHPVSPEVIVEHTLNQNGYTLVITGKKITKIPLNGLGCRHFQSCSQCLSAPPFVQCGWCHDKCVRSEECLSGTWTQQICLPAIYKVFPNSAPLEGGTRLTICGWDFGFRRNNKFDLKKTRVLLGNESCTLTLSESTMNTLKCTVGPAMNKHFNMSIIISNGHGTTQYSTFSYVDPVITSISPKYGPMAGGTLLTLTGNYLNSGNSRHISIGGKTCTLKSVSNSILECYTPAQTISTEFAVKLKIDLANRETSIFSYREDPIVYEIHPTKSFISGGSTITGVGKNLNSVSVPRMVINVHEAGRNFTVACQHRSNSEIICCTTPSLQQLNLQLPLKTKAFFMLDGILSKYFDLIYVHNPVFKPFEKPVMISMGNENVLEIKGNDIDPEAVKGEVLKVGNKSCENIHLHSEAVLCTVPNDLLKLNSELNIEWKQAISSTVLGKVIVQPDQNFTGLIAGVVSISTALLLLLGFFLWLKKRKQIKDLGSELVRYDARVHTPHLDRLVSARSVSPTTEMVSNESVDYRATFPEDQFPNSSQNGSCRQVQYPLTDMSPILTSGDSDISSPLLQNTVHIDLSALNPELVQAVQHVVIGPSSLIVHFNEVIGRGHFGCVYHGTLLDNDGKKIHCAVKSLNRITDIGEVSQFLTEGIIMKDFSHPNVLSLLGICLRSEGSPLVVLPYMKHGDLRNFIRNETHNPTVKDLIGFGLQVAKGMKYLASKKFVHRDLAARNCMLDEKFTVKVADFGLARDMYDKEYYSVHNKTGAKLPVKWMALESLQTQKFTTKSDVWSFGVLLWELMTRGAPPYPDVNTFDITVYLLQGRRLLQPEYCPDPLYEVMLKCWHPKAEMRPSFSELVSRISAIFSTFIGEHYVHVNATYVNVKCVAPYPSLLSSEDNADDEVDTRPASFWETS

Test [3] deals with T1, MET. The test can be described thus: Test A: HTRF MET assay in 96-well format. The format is biochemical. More on the design: The His-Tev-MET (956-1390) recombinant DNA in pFastBac (Invitrogen) is transfected into insect cells; His tag (N, cleaved yes); TEV cleavage site (N); made in house; host or cells: SF21 insect cells (baculovirus, pFastBac). Particulars: MET 5 nM, 10 μM ATP. How it is done: I) Expression and Purification of MET, Cytoplasmic Domain
The His-Tev-MET (956-1390) recombinant DNA in pFastBac (Invitrogen) is transfected into insect cells, and after several viral amplification steps, the final baculovirus stock is tested for the expression of the protein of interest.
After infection for 72 h at 27° C. with the recombinant virus, the SF21 cell cultures are harvested by centrifugation and the cell pellets are stored at −80° C.
The cell pellets are resuspended in lysis buffer (buffer A [50 mM HEPES, pH 7.5, 250 mM NaCl, 10% glycerol, 1 mM TECP]; +cocktail of protease inhibitors, Roche Diagnostics, without EDTA, ref 1873580), stirred at 4° C. until the mixture is homogeneous and then lyzed mechanically using a “Dounce” type apparatus.
After centrifugation, the lysis supernatant is incubated for 2 h at 4° C. with nickel chelate resin (His-Trap 6 Fast Flow™, GE HealthCare). After washing with 20 volumes of buffer A, the suspension is packed into a column, and the proteins are eluted with a gradient of buffer B ([…]+290 mM imidazole).
The fractions containing the protein of interest for the purpose of electrophoretic analysis (SDS PAGE) are combined, concentrated by ultrafiltration (10 kDa cut-off) and injected onto an exclusion chromatography column (Superdex™ 200, GE HealthCare) equilibrated in buffer A.
After enzymatic cleavage of the histidine tag, the protein is reinjected onto a new IMAC nickel chelate chromatography column (His-Trap 6 Fast Flow™, GE HealthCare) equilibrated in buffer A. The fractions eluted with a gradient of buffer B and containing the protein of interest after electrophoresis (SDS PAGE) are finally combined and conserved at −80° C.
For the production of autophosphorylated protein, the previous fractions are incubated for 1 h at ambient temperature after the addition of 2 mM ATP, 2 mM MgCl2, and 4 mM Na3VO4. After the reaction has been stopped with 5 mM of EDTA, the reaction mixture is injected onto a HiPrep desalifying column (GE HealthCare) preequilibrated in buffer A+4 mM Na3VO4, and the fractions containing the protein of interest (SDS PAGE analysis) are combined and stored at −80° C. The degree of phosphorylation is verified by mass spectrometry (LC-MS) and by peptide mapping.
• A) Test A: HTRF MET assay in 96-well format
MET at a final concentration of 5 nM is incubated in a final volume of 50 μl of enzymatic reaction in the presence of the test molecule (for a final concentration range of from 0.17 nM to 10 μM, 3% DMSO final concentration) in 10 mM MOPS buffer, pH 7.4, 1 mM DTT, 0.01% Tween 20. The reaction is initiated with the substrate solution to obtain final concentrations of 1 μg/ml poly-(GAT), 10 μM ATP and 5 mM MgCl2. After incubation for 10 min at ambient temperature, the reaction is stopped with a 30 μl mix so as to obtain a final solution of 50 mM Hepes pH 7.5, 500 mM potassium fluoride, 0.1% BSA and 133 mM EDTA in the presence of 80 ng of streptavidin 61SAXLB Cis-Bio Int. and 18 ng of anti-phosphotyrosine Mab PT66-Europium Cryptate per well. After incubation for 2 hours at ambient temperature, the reading is taken at 2 wavelengths, 620 nm and 665 nm, on a reader for the TRACE/HTRF technique and the % inhibition is calculated from the 665/620 ratios.
Target sequence in this assay (P08581 956-1390): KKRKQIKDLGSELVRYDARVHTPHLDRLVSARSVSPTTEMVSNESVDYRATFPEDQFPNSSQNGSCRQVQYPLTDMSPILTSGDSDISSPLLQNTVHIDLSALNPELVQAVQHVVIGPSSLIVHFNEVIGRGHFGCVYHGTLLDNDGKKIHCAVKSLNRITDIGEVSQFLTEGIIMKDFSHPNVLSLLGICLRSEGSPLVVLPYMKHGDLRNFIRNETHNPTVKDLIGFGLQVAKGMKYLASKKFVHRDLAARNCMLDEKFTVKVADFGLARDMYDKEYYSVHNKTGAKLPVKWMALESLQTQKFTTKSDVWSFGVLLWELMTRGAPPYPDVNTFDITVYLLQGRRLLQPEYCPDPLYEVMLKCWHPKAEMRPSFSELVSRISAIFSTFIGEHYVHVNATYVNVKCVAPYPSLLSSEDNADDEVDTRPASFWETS
In general terms: TR-FRET usually uses a lanthanide donor and a delayed reading to cut background.

Consider `CC(=O)Nc1nc2ccc(Sc3nnc4ccc(N5CCN(C)CC5)nn34)cc2s1` [Example 25, N-(6-{[6-(4-Methylpiperazin-1-yl)[1,2,4]triazolo[4,3-b]pyridazin-3-yl]sulphanyl}-1,3-benzothiazol-2-yl)acetamide], for which the IC50 (commonly the midpoint of a concentration-inhibition curve) in test [1] was below 1000 nM; against MET [2], 100 to 500 nM; on MET [3], below 100 nM.
As for `COCCNc1nc2ccc(Sc3nnc4ccc(-c5ccc(F)cc5)nn34)cc2s1` [Example 26, 6-{[6-(4-Fluorophenyl)[1,2,4]triazolo[4,3-b]pyridazin-3-yl]sulphanyl}-N-(2-methoxyethyl)-1,3-benzothiazol-2-amine], the IC50 in test [1] is below 1000 nM; at MET [2] it was below 100 nM; on MET [3], below 100 nM.
In the case of `COCCNc1ccc2nnc(Sc3ccc4nc(NC(C)=O)sc4c3)n2n1` [Example 27, N-[6-({6-[(2-Methoxyethyl)amino][1,2,4]triazolo[4,3-b]pyridazin-3-yl}sulphanyl)-1,3-benzothiazol-2-yl]acetamide], the IC50 in test [1] is below 1000 nM; on MET [2] it was below 100 nM; on MET [3], below 100 nM.
As for `O=C(NCCN1CCOCC1)Nc1nc2ccc(Sc3nnc4ccc(N5CCOCC5)nn34)cc2s1` [Example 28, 1-[2-(Morpholin-4-yl)ethyl]-3-(6-{[6-(morpholin-4-yl)[1,2,4]triazolo[4,3-b]-pyridazin-3-yl]sulphanyl}-1,3-benzothiazol-2-yl)urea], the values for the IC50 (in test [1]; against MET [2]; at MET [3]) were below 1000 nM, below 100 nM and below 100 nM, respectively.
For the compound `Nc1ccc2nnc(Sc3ccc4nc(NC(=O)NCCN5CCOCC5)sc4c3)n2n1` [Example 29, 1-{6-[(6-Amino[1,2,4]triazolo[4,3-b]pyridazin-3-yl)sulphanyl]-1,3-benzothiazol-2-yl}-3-[2-(morpholin-4-yl)ethyl]urea], the IC50 in test [1] is below 1000 nM; on MET [2], 100 to 500 nM; on MET [3] it was below 100 nM.
As to `Fc1ccc(-c2ccc3nnc(Sc4ccc5nc(NCCN6CCOCC6)sc5c4)n3n2)cc1` [Example 30, 6-{[6-(4-Fluorophenyl)[1,2,4]triazolo[4,3-b]pyridazin-3-yl]sulphanyl}-N-[2-(morpholin-4-yl)ethyl]-1,3-benzothiazol-2-amine], the IC50 is below 1000 nM in test [1], below 100 nM against MET [2] and below 100 nM on MET [3].
Consider `CC(=O)Nc1ccc2nnc(Sc3ccc4nc(NC(=O)NCCN5CCOCC5)sc4c3)n2n1` [Example 31, N-(3-{[2-({[2-(Morpholin-4-yl)ethyl]carbamoyl}amino)-1,3-benzothiazol-6-yl]sulphanyl}[1,2,4]triazolo[4,3-b]pyridazin-6-yl)acetamide], for which the IC50 was below 1000 nM in test [1], 100 to 500 nM against MET [2] and below 100 nM at MET [3].
Take `CC(C)(C)C(=O)Nc1ccc2nnc(Sc3ccc4nc(NC(=O)NCCN5CCOCC5)sc4c3)n2n1` [Example 32, 2,2-Dimethyl-N-(3-{[2-({[2-(morpholin-4-yl)ethyl]carbamoyl}amino)-1,3-benzothiazol-6-yl]sulphanyl}[1,2,4]triazolo[4,3-b]pyridazin-6-yl)propanamide]: the IC50 in test [1] is below 1000 nM; against MET [2], below 100 nM; at MET [3], below 100 nM.
`O=C(Nc1nc2ccc(Sc3nnc4ccc(-c5ccc(F)cc5)nn34)cc2s1)Oc1ccccc1` [Example 33, Phenyl (6-{[6-(4-fluorophenyl)[1,2,4]triazolo[4,3-b]pyridazin-3-yl]sulphanyl}-1,3-benzothiazol-2-yl)carbamate]: the IC50 is below 1000 nM in test [1], below 100 nM at MET [2] and below 500 nM on MET [3].
For `O=C(NCCN1CCOCC1)Nc1nc2ccc(Sc3nnc4ccc(OCC5CCO5)nn34)cc2s1` (stereo not drawn) [Example 34, 1-[2-(Morpholin-4-yl)ethyl]-3-(6-{[6-(oxetan-2-ylmethoxy)[1,2,4]triazolo[4,3-b]pyridazin-3-yl]sulphanyl}-1,3-benzothiazol-2-yl)urea], in that order: below 10000 nM, below 100 nM and below 100 nM.
Consider `O=C(Nc1nc2ccc(Sc3nnc4ccc(-c5ccc(F)cc5)nn34)cc2s1)OCC1CCO1` (stereo not drawn) [Example 35, Oxetan-2-ylmethyl (6-{[6-(4-fluorophenyl)[1,2,4]triazolo[4,3-b]pyridazin-3-yl]sulphanyl}-1,3-benzothiazol-2-yl)carbamate], for which the IC50 was below 1000 nM in test [1], below 100 nM against MET [2] and below 100 nM at MET [3].
As to `COc1ccc2nnc(Sc3ccc4nc(NC(=O)C5CC5)sc4c3)n2n1` [Example 36, N-{6-[(6-Methoxy[1,2,4]triazolo[4,3-b]pyridazin-3-yl)sulphanyl]-1,3-benzothiazol-2-yl}cyclopropanecarboxamide], the IC50 in test [1] was below 1000 nM; against MET [2], below 100 nM; at MET [3], below 100 nM.

(Values after patent US9115134B2, “6-triazolopyridazine sulfanyl benzothiazole derivatives as MET inhibitors” (SANOFI, priority 2007, dated 2015).)
